Test results from patent publication US12637473B2, “MDM2 protein degraders” (THE REGENTS OF THE UNIVERSITY OF MICHIGAN, priority 2016, dated 2026).
Entries after “also recorded” stand apart in the source; their conditions may differ.

Key:
Format in all cases: cell-based
[1] = target: T1, MDM2 (Homo sapiens, UniProt Q00987); assay: MDM2 degradation with or without proteasome inhibitor MG-132, western blotting; parameters: endogenous in cells; host or cells: RS4;11; settings: FIG. 6
Experimental: RS4; 11 cells were pre-incubated with the proteasome inhibitor MG-132 (20 μM) or without any pre-incubation for 2 hours. Next, the cells were treated with Cpd. A (0.3 μM), Cpd. No. 14 (0.03 μM), Cpd. No. 15 (0.01 μM), and Cpd. No. 22 (0.01 μM) for 2 hours, then harvested and lysed. The cell lysates were subject to western blotting analysis.

[2] = target: T1, MDM2; assay: MDM2 degradation and p53 activation, western blotting of cell lysates; parameters: endogenous in cells; host or cells: RS4;11; settings: RS4
Experimental: RS4; 11 cells were treated with Cpd. A, Cpd. B, Cpd. No. 15, and Cpd. No. 22 for 2 hours, then harvested and lysed. The cell lysates were subjected to western blotting analysis. […] No. 15 and Cpd. No. 22 as compared to Cpd. A, indicating MDM2 degradation. The structure of Cpd.

[3] = target: T1, MDM2; assay: MDM2 degradation and p53 activation after pre-incubation with Cpd. C, Western blot; parameters: endogenous in cells; host or cells: RS4;11
Experimental: RS4; 11 cells were pre-incubated with 30 μM Cpd. C to compete for the binding of phthalimide to CRBN, or DMSO, for 2 hours before adding Cpd. A, Cpd. No. 14, Cpd. No. 15, and Cpd. No. 22. In the Western blot RS4; 11 cells were then co-treated with the indicated compounds at the indicated concentrations after pre-incubation. […] No. 14, Cpd. No. 15, and Cpd.

[4] = tested on: RS4; 11 cells; assay: Cell growth inhibition by WST assay with Cpd. C co-treatment (CRBN competition); parameters: LogIC50: unit not given here; settings: for HillSlope / IC50 / LogIC50: 4 days
Experimental: RS4; 11 cells were pre-incubated with different concentrations of Cpd. C to compete for the binding of phthalimide to CRBN, or DMSO, for 2 hours before adding Cpd. A, Cpd. No. 14, Cpd. No. 15, and Cpd. No. 22. The cells were then co-treated with 10, 20, or 30 μM Cpd. C and increasing concentrations of Cpd. A, Cpd. No. 14, Cpd. No. 15, and Cpd. No. 22 for 4 days, with a starting cell concentration of ˜15,000/well. Cell growth inhibition was determined by the WST assay. […] No. 14, Cpd. No. 15, and Cpd. No. 22 with co-treatment of Cpd. C. The structure of Cpd.

[5] = tested on: RS4; 11 cell line; assay: CellTiter-Glo Luminescent Cell Viability Assay, cell growth inhibition; settings: Homo sapiens, 96 h, 4 days
Procedure, shortened: (§1)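 Cells plated at 2,000/well with serially diluted compounds, incubated 4 days at 37° C, 5% CO2. Viability read by CellTiter-Glo luminescence after 10-20 min at room temperature; IC50 from dose-response fit.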

[6] = tested on: MV4-11 cell line; assay: as above; settings: Homo sapiens, 96 h, 4 days
Procedure, shortened: as §1

[7] = tested on: RS4; 11 cells transfected shRNA control vector; assay: Cell growth inhibition by WST assay, shRNA control cells; parameters: LogIC50: unit not given here; settings: RS4;11 sh Control, 4 days
Experimental: (§2) RS4; 11 cells with stable shRNA knockdown of p53 or those transfected shRNA control vector were treated with Cpd. A, Cpd. B, Cpd. No. 14, Cpd. No. 21, Cpd. No. 15, and Cpd. No. 22 for 4 days, with a cell concentration of ˜15,000/well. Cell growth inhibition was determined by WST assay. See Table 7 (p53) and Table 8 (control). Significant increases in IC50 of the Compounds of the Disclosure in the p53 knockdown RS4; 11 cells were observed compared with that in the sh control cells. […] The p53 knockdown efficiency was determined by western blot for p53 protein levels with or without treatment of Cpd. A (1 μM) for 2 hours.

[8] = tested on: RS4; 11 cells with stable shRNA knockdown of p53; assay: Cell growth inhibition by WST assay, p53 knockdown cells; parameters: LogIC50: unit not given here; settings: RS4;11 sh p53, 4 days
Experimental: as §2

[9] = target: T1, MDM2; assay: MDM2 degradation and p53 activation, western blotting of cell lysates; parameters: endogenous in cells
Experimental: MV-4-11 cells were treated with Cpd. A, Cpd. B, Cpd. No. 15, and Cpd. No. 22 for 2 hours, then harvested and lysed. The cell lysates were subjected to western blotting analysis. […] No. 15 and Cpd. No. 22 as compared to Cpd. A, indicating MDM2 degradation.

[10] = tested on: p53 target genes: p21, PUMA and BAX; assay: Activation of p53 downstream target genes, quantitative real-time PCR; settings: RS4, 11 cells, 10 nM
Experimental: RS4; 11 cells were treated with Cpd. A (0.3 μM), Cpd. No. 15 (10 nM), and Cpd. No. 22 (10 nM) for 3, 6, or 12 hours, and then harvested and washed. Cellular mRNA samples were extracted from the cells and then subjected to Reverse Transcription and quantitative real-time PCR for the analysis of the mRNA levels of three representative p53 target genes: p21, that induces cell cycle arrest, and PUMA and BAX that leads to apoptosis. […] A, Cpd. No. 15, and Cpd. No. 22.

[11] = RS4, 11 cells, pre-incubated with 30 μM Cpd. C for 2 hours

T1 sequence (Q00987 whole entry): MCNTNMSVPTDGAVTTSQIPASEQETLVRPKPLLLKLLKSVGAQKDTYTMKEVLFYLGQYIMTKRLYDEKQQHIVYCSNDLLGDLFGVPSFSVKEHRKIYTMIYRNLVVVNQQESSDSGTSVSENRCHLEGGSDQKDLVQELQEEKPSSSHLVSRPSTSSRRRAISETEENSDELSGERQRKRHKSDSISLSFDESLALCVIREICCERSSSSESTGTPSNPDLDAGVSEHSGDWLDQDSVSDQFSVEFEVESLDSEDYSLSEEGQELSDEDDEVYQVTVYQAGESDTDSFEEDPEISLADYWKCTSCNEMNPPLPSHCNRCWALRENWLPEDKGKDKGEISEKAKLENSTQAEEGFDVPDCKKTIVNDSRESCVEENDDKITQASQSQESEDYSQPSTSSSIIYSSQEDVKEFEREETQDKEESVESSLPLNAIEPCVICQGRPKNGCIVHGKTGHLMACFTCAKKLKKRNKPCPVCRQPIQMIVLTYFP

MDM2 degradation, dependence on proteasome [1]: proteasome-dependent
p53 activation ([2]; 11 cell line): p53 activation
MDM2 degradation, dependence on cereblon (CRBN) ([3]; FIG. 7): cereblon (CRBN)-dependent
MDM2 degradation, competition by Cpd. C [3, 11]: significantly competed by Cpd. C
p53 activation, competition by Cpd. C [3, 11]: significantly competed by Cpd. C
IC50 ([4]; + 10 uM Cpd. C): 61.7 nM
IC50 ([4]; + 20 uM Cpd. C): 89.6 nM
IC50 ([4]; + 30 uM Cpd. C): 83.2 nM
IC50 ([4]; Homo sapiens, 96 h, without Cpd. C): 5.73 nM
IC50 [5]: 4.7 nM
IC50 [6]: 2.7 nM
IC50 ([7]; Homo sapiens, 96 h): 9.45 nM
IC50 ([8]; Homo sapiens, 96 h): 137 nM
p53 activation ([9]; MV-4-11 cell line): p53 activation
Compound: O=C1CCC(N2Cc3c(NCCOCCOCCOCCNC(=O)c4ccc(NC(=O)[C@@H]5NC6(CCCCC6)[C@@]6(C(=O)Nc7cc(Cl)ccc76)[C@H]5c5cccc(Cl)c5F)cc4)cccc3C2=O)C(=O)N1 (stereo partly drawn) [Cpd. No. 22, (3′R,4'S,5′R)-6″-chloro-4′-(3-chloro-2-fluorophenyl)-N-(4-((2-(2-(2-(2-((2-(2,6-dioxopiperidin-3-yl)-1-oxoisoindolin-4-yl)amino)ethoxy)ethoxy)ethoxy)ethyl)carbamoyl)phenyl)-2″-oxodispiro[cyclohexane-1,2′-pyrrolidine-3′,3″-indoline]-5′-carboxamide]
protein level of MDM2 (MDM2 degradation) ([2]; 11 cells, 2 hours, compared to Cpd. A): induce MDM2 degradation; also recorded: significantly decreased
HillSlope ([4]; + 10 uM Cpd. C): −1.701
LogIC50 ([4]; + 10 uM Cpd. C): −1.209
HillSlope ([4]; + 20 uM Cpd. C): −1.530
LogIC50 ([4]; + 20 uM Cpd. C): −1.048
HillSlope ([4]; + 30 uM Cpd. C): −1.341
LogIC50 ([4]; + 30 uM Cpd. C): −1.080
HillSlope ([4]; without Cpd. C): −1.803
LogIC50 ([4]; without Cpd. C): −2.242
shift of the dose response curves ([4]; co-treatment of Cpd. C (10, 20, or 30 μM)): Significant rightward shifts
HiliSlope [7]: −1.567
LogIC50 [7]: −2.025
HiliSlope [8]: −0.8833
LogIC50 [8]: −0.8628
protein level of MDM2 (MDM2 degradation) ([9]; MV-4-11 cells, 2 hours, compared to Cpd. A): induce MDM2 degradation; also recorded: significantly decreased
mRNA levels of p21 ([10]; FIG. 3): activate
mRNA levels of PUMA ([10]; FIG. 4): activate
mRNA levels of BAX ([10]; FIG. 5): activate
activation of p53 downstream target genes (mRNA levels of p21, PUMA, BAX) ([10]; 3, 6, or 12 hours): Significant activation
